Experimental data taken from patent US9675579B2, “Tetrahydrocannabivarin for use in the treatment of nausea and vomiting” (GW Pharma Limited, priority 2013, dated 2017).
“Also recorded” adds a separate entry of the source. Read-outs that look alike come from different tables or passages of the source.

Tests used:
Sprague-Dawley rats [1] = experiment: Potentiation or attenuation of LiCl-induced conditioned gaping (Example 2); format: in vivo, rat; settings: for LiCl-induced conditioned gaping reactions relative to group VEH: rats, drug-free test 72 h later
Experimental: Animals and Drugs and Materials were as described in Example 1 above.
Following recovery from intraoral cannulation surgery, the rats received the adaptation trial to the TR test as described in Example 1 above. On the day of conditioning (saccharin palatability test), the rats were injected with VEH (n=10), 2.5 mg/kg SR (n=10), 2.5 mg/kg THC (n=6), 10 mg/kg THC (n=7), 2.5 mg/kg THCV (n=10) or 10 mg/kg THCV (n=6), 2.5 mg/kg CBDV (n=10) or 200 mg/kg CBDV (n=13). Thirty min later, each rat was intraorally infused with 0.1% saccharin solution while their orofacial responses were video recorded from the mirror beneath the chamber. Immediately following the 2 min intraoral infusion of saccharin, the rats were injected with 20 ml/kg or 0.15 M LiCl.
Seventy-two hours later, the rats received a drug-free test trial, during which they received a 2 min intraoral infusion of 0.1% saccharin solution and the frequency of gaping was measured. The videotapes were later scored (at 1/2 speed) by an observer blind to the experimental conditions for the hedonic reaction of tongue protrusions (at conditioning and testing). As well, to determine other non-specific effects of the drug during conditioning, the conditioning tapes were scored for bouts of active locomotion (forward movement of paws on the floor of the cage).

rodent = settings: cited from earlier work; for suppression of toxin-induced conditioned gaping: rodent model of conditioned nausea
Sprague-Dawley rats [2] = experiment: Conditioned gaping to saccharin paired with the compound (Example 1)
Experimental: Naïve male Sprague-Dawley rats, obtained from Charles River Laboratories (St Constant, Quebec) were single-housed in shoebox cages in the colony room at an ambient temperature of 21° C. with a 12/12 light/dark schedule (lights off at 8 AM) and maintained on ad-libitum food and water.
Drugs and Materials: All cannabinoid compounds were prepared in a vehicle (VEH) of ethanol/Cremophor (Sigma)/saline (SAL; 1:1:18) and administered intraperitonally (i.p.).
SR was prepared at 2.5, 10 and 20 mg/kg and administered at a volume of 2 ml/kg. CBDV was prepared at 2.5 and 10 mg/kg and administered at a volume of 2 ml/kg. A high dose of CBDV was prepared at 200 mg/kg and administered at a volume 10 ml/kg. THCV was prepared at 2.5, 10 and 20 mg/kg and administered at a volume of 2 ml/kg.
Procedures: Rats were implanted with intraoral cannulae under isofluorane anesthesia. […]
Seventy two hours after the conditioning trial, the rats were returned to the TR chamber and intraorally infused with 0.1% saccharin solution and their orofacial reactions were video recorded with the feed from the video camera fire-wired into a computer. The video tapes are later scored (at 1/2 speed) by a trained observer blind to the experimental conditions for the behaviour of gaping (large openings of the mouth and jaw, with lower incisors exposed).

CB1 receptor [3] = molecular target: CB1 receptor (Homo sapiens, UniProt P21554); settings: in vitro, Thomas et al., 2005; cited from earlier work
CB2 receptor = CB2 receptor (Homo sapiens, UniProt P34972); settings: in vitro, Thomas et al., 2005; cited from earlier work
CB1 receptor [4] = molecular target: CB1 receptor (Mus musculus, UniProt P47746); settings: low doses (<3 mg/kg), Pertwee et al., 2007; cited from earlier work
[5] = 2.5 mg/kg i.p. 30 min before saccharin-LiCl pairing

Chain of CB1 receptor (Mus musculus, UniProt P47746) (P47746 whole entry): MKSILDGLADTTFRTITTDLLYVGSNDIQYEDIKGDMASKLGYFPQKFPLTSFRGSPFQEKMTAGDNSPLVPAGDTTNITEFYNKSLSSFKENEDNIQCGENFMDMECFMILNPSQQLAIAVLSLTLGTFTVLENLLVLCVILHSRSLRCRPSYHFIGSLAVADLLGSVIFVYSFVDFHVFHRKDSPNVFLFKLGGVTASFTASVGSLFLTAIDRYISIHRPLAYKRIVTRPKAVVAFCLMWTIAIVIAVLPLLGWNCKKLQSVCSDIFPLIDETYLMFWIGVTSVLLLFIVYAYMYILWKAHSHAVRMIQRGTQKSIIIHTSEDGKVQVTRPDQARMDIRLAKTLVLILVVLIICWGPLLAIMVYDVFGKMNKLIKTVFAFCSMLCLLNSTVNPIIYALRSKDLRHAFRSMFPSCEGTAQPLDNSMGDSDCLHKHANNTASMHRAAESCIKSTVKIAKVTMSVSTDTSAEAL
Chain of CB1 receptor (Homo sapiens, UniProt P21554) (P21554 whole entry): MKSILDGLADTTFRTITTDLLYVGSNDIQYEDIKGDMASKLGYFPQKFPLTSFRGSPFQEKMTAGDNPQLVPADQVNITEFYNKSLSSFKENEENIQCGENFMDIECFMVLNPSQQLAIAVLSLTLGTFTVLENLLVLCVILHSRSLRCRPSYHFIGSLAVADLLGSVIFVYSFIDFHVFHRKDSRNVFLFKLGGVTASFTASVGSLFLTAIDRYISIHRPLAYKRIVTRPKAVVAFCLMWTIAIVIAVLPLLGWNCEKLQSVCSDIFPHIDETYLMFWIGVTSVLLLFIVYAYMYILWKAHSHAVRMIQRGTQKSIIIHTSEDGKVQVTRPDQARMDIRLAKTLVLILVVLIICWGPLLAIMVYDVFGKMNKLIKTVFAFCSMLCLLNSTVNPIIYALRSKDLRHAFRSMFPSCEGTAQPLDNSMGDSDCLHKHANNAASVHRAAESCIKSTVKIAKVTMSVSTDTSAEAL
Chain of CB2 receptor (P34972 whole entry): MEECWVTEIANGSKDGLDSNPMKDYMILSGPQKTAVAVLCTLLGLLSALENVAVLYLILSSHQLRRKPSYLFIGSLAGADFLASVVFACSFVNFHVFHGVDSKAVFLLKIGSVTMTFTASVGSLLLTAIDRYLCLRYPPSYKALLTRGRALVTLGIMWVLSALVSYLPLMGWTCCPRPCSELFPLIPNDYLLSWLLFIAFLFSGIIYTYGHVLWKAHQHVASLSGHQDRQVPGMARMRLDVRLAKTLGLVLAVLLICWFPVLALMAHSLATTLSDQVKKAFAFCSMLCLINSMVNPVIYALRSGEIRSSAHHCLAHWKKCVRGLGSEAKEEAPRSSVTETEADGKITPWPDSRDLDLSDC

## CCCCCc1cc(O)c2c(c1)OC(C)(C)[C@@H]1CCC(C)=C[C@@H]21 [THC, tetrahydrocannabinol]
Sprague-Dawley rats [1]; [5]
  LiCl-induced conditioned gaping reactions relative to group VEH: significantly attenuated the LiCl-induced gaping reactions
Sprague-Dawley rats [1]; 10 mg/kg i.p. 30 min before saccharin-LiCl pairing
  LiCl-induced conditioned gaping reactions relative to group VEH: significantly attenuated the LiCl-induced gaping reactions
rodent; 0.5 mg/kg
  suppression of toxin-induced conditioned gaping: suppress toxin-induced conditioned gaping

## C=C(C)[C@@H]1CCC(C)=C[C@H]1c1c(O)cc(CCC)cc1O [CBDV]
Sprague-Dawley rats [1]; [5]
  LiCl-induced conditioned gaping reactions relative to group VEH: marginally attenuated LiCl-induced gaping reactions
Sprague-Dawley rats [1]; 200 mg/kg i.p. 30 min before saccharin-LiCl pairing, 200 mg/kg
  LiCl-induced conditioned gaping reactions relative to group VEH: significantly attenuated the LiCl-induced gaping reactions; also recorded: statistically significant anti-nausea effect

## CCCc1cc(O)c2c(c1)OC(C)(C)[C@@H]1CCC(C)=C[C@@H]21 [THCV, tetrahydrocannabivarin]
Sprague-Dawley rats [1]; calculated from the rat dose, Km rat 6, Km human 37
  human equivalent dose of the dose that blocked LiCl-induced nausea: greater than 0.4 mg/kg
Sprague-Dawley rats [1]; in rats
  dose that blocked LiCl-induced nausea: greater than 2.5 mg/kg
Sprague-Dawley rats [1]; [5]
  LiCl-induced conditioned gaping reactions relative to group VEH: marginally attenuated LiCl-induced gaping reactions
Sprague-Dawley rats [1]; 10 mg/kg i.p. 30 min before saccharin-LiCl pairing, 10 mg/kg
  LiCl-induced conditioned gaping reactions relative to group VEH: no gaping reactions; also recorded: eliminated LiCl-induced nausea
Sprague-Dawley rats [2]; rats, i.p., all doses tested (SR 10, 20; AM251 10; THCV 10, 20; CBDV 10, 200 mg/kg), drug-free test 72 h after conditioning, vs VEH and other groups
  conditioned gaping reactions (nausea-like reactions) elicited by 0.1% saccharin previously paired with the compound: did not produce apparent inverse agonist properties; also recorded: neither CBDV (10 or 200 mg/kg) nor THCV (10 or 20 mg/kg) produced the nausea-like profile of conditioned gaping
CB1 receptor [3]
  action at the CB1 receptor: acts as a CB1 and CB2 receptor antagonist
CB2 receptor
  action at the CB2 receptor: acts as a CB1 and CB2 receptor antagonist
CB1 receptor [4]
  action at the CB1 receptor in vivo: act as a CB1 receptor antagonist

## C=C(C)[C@@H]1CCC(C)=C[C@H]1c1c(O)cc(CCCCC)cc1O [CBD, cannabidiol]
rodent; 5 mg/kg
  suppression of toxin-induced conditioned gaping: suppress toxin-induced conditioned gaping

## Cc1c(C(=O)NN2CCCCC2)nn(-c2ccc(Cl)cc2Cl)c1-c1ccc(Cl)cc1 [SR, rimonabant]
Sprague-Dawley rats [1]; [5]
  LiCl-induced conditioned gaping reactions relative to group VEH: potentiated LiCl-induced gaping reactions
Sprague-Dawley rats [2]; rat, in vivo
  conditioned gaping, 20 mg/kg compared with 10 mg/kg: marginally more gaping
rodent; 2.5 mg/kg, sub-threshold for nausea on its own, pre-treatment prior to saccharin-LiCl pairing, drug-free test 72 hours after conditioning
  potentiation of the nausea produced by LiCl (potentiated gaping): potentiated the nausea produced by LiCl
